Where “and” joins values, the source holds several entries; their conditions need not be identical. Identical values can stand only once.
Experiment: Repeated-treatment efficacy for removing an intravenous dose of 238Pu (excretion, tissue retention, clinical observations), female and male arms
Format: in vivo, Swiss-Webster mice
Conditions: for % Recovered Dose-Female Animals-Urine per Day-Day 11 Necropsy: animal group H
Protocol: The objective of this study was to characterize the efficacy of 3,4,3-L1(1,2-HOPO) at enhancing elimination from an internal plutonium burden in female and male Swiss-Webster mice administered a soluble citrate complex of ^238Pu and treated multiple times, starting at 24 hours after the exposure. Efficacy was evaluated by comparing the tissue contents, urinary and fecal excretions of ^238Pu in treated animals versus untreated animals.
The medical countermeasure 3,4,3-L1(1,2-HOPO) was administered parenterally (ip) or orally (po) via consecutive injections or gavages (six daily or twelve twice daily) starting at 24 hours post contamination at the following four selected doses: 30 μmol/kg ip, 150 μmol/kg po, 300 μmol/kg po, and 600 μmol/kg po (equivalent to respective approximate human doses range of […], using the accepted conversion system of mouse doses into human equivalent doses—HED—based on body surface area). Oral doses also included the permeability enhancer selected during formulation development work.
• Challenge isotope: ^238Pu • Challenge dose: 25 nCi (i.e., approximately 0.8 μCi/kg) • Route of contamination: Intravenous (iv) tail-vein • Route of treatment: Intraperitoneal Injection (ip) or Oral (po) • Frequency of treatment: Multiple (once- or twice-daily for 6 days) doses, starting 24 hr postcontamination • Treatment dose calculation: Dose calculations (mg/kg or μmol/kg) for the decorporation agent were based on the individual body weight measured after contamination. • Study Duration: 11 days, in-life
c. […] Test article and control dose formulations were prepared within 1 day of dose administration, by weighing out the appropriate amount of test article, dispersing in vehicle. For ip solutions, the test article was used alone, while for oral suspensions, a mixture of test article and excipient (90:10, w:w) was used. The pH was adjusted to 7.0-7.4 for ip administration and 5.0-5.5 for oral administration with sterile NaOH. Dose formulations were prepared at room temperature and filter-sterilized. • Storage: 2-8° C.; refrigerated; protected from light. • Characterization: The concentration of each test article formulation was verified by high-performance liquid chromatography-mass spectrometry. • Test Article Handling: Test, reference, and control article formulations were handled with the use of eye protection, gloves, and a protective laboratory coat. • Correct Dose Assurance: The test article was weighed with calibrated balances. The administration of each dose formulation was properly documented, and the amount administered to each animal recorded.
e. Experimental Procedures (In-Life Evaluations and Euthanasia) • Contamination: Single administration by intravenous (iv) tail-vein injection (0.2 mL injection volume) under isoflurane anesthesia. Three standard 0.2 mL injections were performed into polyethylene bottles and pre-loaded with aliquots of concentrated nitric acid on each injection day. Six female and six male mice were culled for necropsy 1 hr post-contamination and were used as standards. A11 standards were processed and counted together with the final samples to allow verification of the contamination dose. • Dose Administration: Single administration by intraperitoneal injection (ip) or oral gavage (po) under isoflurane anesthesia. • Mortality/Morbidity: Assessed at least once daily. • Clinical Observations: Recorded once daily (4 hr post-dose on day of treatment), or more often as clinical signs warranted. […]

SMILES: O=C(NCCCN(CCCCN(CCCNC(=O)c1cccc(=O)n1O)C(=O)c1cccc(=O)n1O)C(=O)c1cccc(=O)n1O)c1cccc(=O)n1O [3,4,3-L1(1,2-HOPO)]
- % Recovered Dose-Female Animals-Feces per Day-Day 7 Necropsy (animal group B, day 1, female mice): 9.41%
- % Recovered Dose-Female Animals-Feces per Day-Day 7 Necropsy (animal group B, day 2, female mice): 8.35%
- % Recovered Dose-Female Animals-Feces per Day-Day 7 Necropsy (animal group B, day 3, female mice): 2.59%
- % Recovered Dose-Female Animals-Feces per Day-Day 7 Necropsy (animal group B, day 4, female mice): 1.99%
- % Recovered Dose-Female Animals-Feces per Day-Day 7 Necropsy (animal group B, day 5, female mice): 2.39%
- % Recovered Dose-Female Animals-Feces per Day-Day 7 Necropsy (animal group B, day 6, female mice): 2.12%
- % Recovered Dose-Female Animals-Feces per Day-Day 7 Necropsy (animal group B, day 7, female mice): 1.74%
- % Recovered Dose-Female Animals-Feces per Day-Day 7 Necropsy (animal group C, day 1, female mice, listed as 3,4,3-LI(1,2-HOPO)): 11.51% and 5.30% and 8.74% and 7.20%
- % Recovered Dose-Female Animals-Feces per Day-Day 7 Necropsy (animal group C, day 2, female mice, listed as 3,4,3-LI(1,2-HOPO)): 13.77% and 8.33% and 12.44% and 14.41%
- % Recovered Dose-Female Animals-Feces per Day-Day 7 Necropsy (animal group C, day 3, female mice, listed as 3,4,3-LI(1,2-HOPO)): 4.51% and 3.49% and 4.66% and 4.88%
- % Recovered Dose-Female Animals-Feces per Day-Day 7 Necropsy (animal group C, day 4, female mice, listed as 3,4,3-LI(1,2-HOPO)): 3.35% and 3.00% and 3.74% and 4.08%
- % Recovered Dose-Female Animals-Feces per Day-Day 7 Necropsy (animal group C, day 5, female mice, listed as 3,4,3-LI(1,2-HOPO)): 2.71% and 2.82% and 2.30% and 2.85%
- % Recovered Dose-Female Animals-Feces per Day-Day 7 Necropsy (animal group C, day 6, female mice, listed as 3,4,3-LI(1,2-HOPO)): 2.52% and 2.18% and 2.39% and 3.01%
- % Recovered Dose-Female Animals-Feces per Day-Day 7 Necropsy (animal group C, day 7, female mice, listed as 3,4,3-LI(1,2-HOPO)): 2.15% and 1.62% and 1.98% and 2.66%
- % Recovered Dose-Female Animals-Feces per Day-Day 7 Necropsy (animal group E, day 1, female mice, listed as 3,4,3-LI(1,2-HOPO)): 6.10% and 10.77% and 13.26% and 10.08%
- % Recovered Dose-Female Animals-Feces per Day-Day 7 Necropsy (animal group E, day 2, female mice, listed as 3,4,3-LI(1,2-HOPO)): 8.15% and 10.30% and 9.61% and 15.30%
- % Recovered Dose-Female Animals-Feces per Day-Day 7 Necropsy (animal group E, day 3, female mice, listed as 3,4,3-LI(1,2-HOPO)): 2.89% and 5.25% and 5.53% and 2.67%
- % Recovered Dose-Female Animals-Feces per Day-Day 7 Necropsy (animal group E, day 4, female mice, listed as 3,4,3-LI(1,2-HOPO)): 2.76% and 3.97% and 4.52% and 2.90%
- % Recovered Dose-Female Animals-Feces per Day-Day 7 Necropsy (animal group E, day 5, female mice, listed as 3,4,3-LI(1,2-HOPO)): 1.35% and 1.95% and 2.80% and 2.17%
- % Recovered Dose-Female Animals-Feces per Day-Day 7 Necropsy (animal group E, day 6, female mice, listed as 3,4,3-LI(1,2-HOPO)): 1.90% and 1.34% and 2.01% and 2.18%
- % Recovered Dose-Female Animals-Feces per Day-Day 7 Necropsy (animal group E, day 7, female mice, listed as 3,4,3-LI(1,2-HOPO)): 2.23% and 1.29% and 1.91% and 2.16%
- % Recovered Dose-Female Animals-Feces per Day-Day 7 Necropsy (animal group F, day 1, female mice, listed as 3,4,3-LI(1,2-HOPO)): 9.32% and 9.52% and 7.17% and 5.19%
- % Recovered Dose-Female Animals-Feces per Day-Day 7 Necropsy (animal group F, day 2, female mice, listed as 3,4,3-LI(1,2-HOPO)): 8.03% and 12.87% and 9.08% and 6.87%
- % Recovered Dose-Female Animals-Feces per Day-Day 7 Necropsy (animal group F, day 3, female mice, listed as 3,4,3-LI(1,2-HOPO)): 2.78% and 4.30% and 4.68% and 2.63%
- % Recovered Dose-Female Animals-Feces per Day-Day 7 Necropsy (animal group F, day 4, female mice, listed as 3,4,3-LI(1,2-HOPO)): 2.68% and 3.98% and 3.14% and 2.89%
- % Recovered Dose-Female Animals-Feces per Day-Day 7 Necropsy (animal group F, day 5, female mice, listed as 3,4,3-LI(1,2-HOPO)): 2.30% and 3.01% and 3.85% and 3.00%
- % Recovered Dose-Female Animals-Feces per Day-Day 7 Necropsy (animal group F, day 6, female mice, listed as 3,4,3-LI(1,2-HOPO)): 2.40% and 2.04% and 2.26% and 1.91%
- % Recovered Dose-Female Animals-Feces per Day-Day 7 Necropsy (animal group F, day 7, female mice, listed as 3,4,3-LI(1,2-HOPO)): 1.39% and 1.59% and 2.15% and 2.13%
- % Recovered Dose-Female Animals-Urine per Day-Day 11 Necropsy (day 1, female mice, listed as 3,4,3-LI(1,2-HOPO)): 9.33% and 10.42% and 5.66% and 9.35% and 11.13% and 9.41% and 6.93% and 9.39%
- % Recovered Dose-Female Animals-Urine per Day-Day 11 Necropsy (day 2, female mice, listed as 3,4,3-LI(1,2-HOPO)): 3.78% and 5.22% and 5.30% and 4.96% and 5.23% and 5.12% and 3.93% and 5.10%
- % Recovered Dose-Female Animals-Urine per Day-Day 11 Necropsy (day 3, female mice, listed as 3,4,3-LI(1,2-HOPO)): 4.12% and 4.15% and 6.39% and 5.55% and 5.41% and 4.29% and 3.92% and 3.16%
- % Recovered Dose-Female Animals-Urine per Day-Day 11 Necropsy (day 4, female mice, listed as 3,4,3-LI(1,2-HOPO)): 2.95% and 3.74% and 4.22% and 3.34% and 3.22% and 4.38% and 2.99% and 5.19%
- % Recovered Dose-Female Animals-Urine per Day-Day 11 Necropsy (day 5, female mice, listed as 3,4,3-LI(1,2-HOPO)): 3.24% and 2.72% and 3.06% and 2.44% and 3.11% and 2.27% and 1.41% and 2.10%
- % Recovered Dose-Female Animals-Urine per Day-Day 11 Necropsy (day 6, female mice, listed as 3,4,3-LI(1,2-HOPO)): 1.23% and 2.05% and 2.60% and 1.54% and 1.89% and 1.51% and 0.91% and 1.79%
- % Recovered Dose-Female Animals-Urine per Day-Day 11 Necropsy (day 7, female mice, listed as 3,4,3-LI(1,2-HOPO)): 1.33% and 1.66% and 2.35% and 1.27% and 1.38% and 1.35% and 1.24% and 1.89%
